Our source for the IC50 values is patent US20170275270A1, “BENZYL SUBSTITUTED INDAZOLES” (Bayer Pharma Aktiengesellschaft, priority 2014, published 2017).

One experiment concerns HeLa. In words: Proliferation assay (HeLa cell line).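 Further: crystal violet staining of cell number, scaled between a plate stained before dosing (0%) and cells left untreated (100%), compounds tested at 0.001-10 µM, IC50 via 4-parameter fit.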 The conditions noted are these: Homo sapiens, 96 h, read-out: Biological Assay 2: Proliferation assay (HeLa cell line) median IC50.
The target in experiment [1] is T1, catalytic domain of human Bub1 (amino acids 704-1085) (Homo sapiens, UniProt O43683).
T1 construct: catalytic domain of human Bub1 (amino acids 704-1085); His6 (N); made in house; host or cells: Hi5 insect cells
In words: Bub1 kinase assay (TR-FRET). It counts as biochemical. The method in brief: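 Compounds from 2 mM DMSO stocks, serially diluted 1:3.4, incubated with enzyme at 22° C for 60 min. Stopped with EDTA, then 1 h with streptavidin-XL665, anti-phosphoserine antibody and Eu-labelled anti-mouse IgG. Phosphorylated biotin-peptide read by TR-FRET; IC50 by 4-parameter logistic fit.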
A general note: Time-resolved FRET reads energy transfer from a long-lived donor to a nearby acceptor.

For the next experiment, the target named is Bub1 (Homo sapiens, UniProt O43683). The experiment can be described thus: Formation-Assay: phosphorylation status of histone 2A by inhibition of kinase activity of Bub1. It counts as cell-based. The conditions noted are these: Biological Assay 4.1: H2A Formation IC50, co-treatment with Nocodazole 1 μg/ml, 16 h. The method in brief:
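Cells co-treated 16 h with Nocodazole (1 μg/ml) and compound (3 nM–10 μM), then fixed and immunostained for phospho-H2A, read by infrared imaging (800 nm) normalised to cell stain (700 nm). Nocodazole-only set as 100%, untreated cells as 0%.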

Experiment [2] concerns HeLa human cervical tumor cells. The experiment can be described thus: Proliferation assay (HeLa+Paclitaxel).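 Further: compounds at 0.001-10 µM added 4 h after paclitaxel, 92 h exposure, absorbance normalized to zero-point plate (0%) and untreated cells (100%), IC50 from 4-parameter fit.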 The conditions noted are these: read-out: Biological Assay 3: HeLa + Paclitaxel IC50, 3 nM paclitaxel, crystal violet.
Protocol: Proliferation Assay (HeLa+Paclitaxel):
Cultivated HeLa human cervical tumor cells (DSMZ ACC-57) were plated at a density of 3000 cells/well in a 96-well multititer plate in 200 μL of growth medium supplemented 10% fetal calf serum. After 24 hours, the cells of one plate (zero-point plate) were stained with crystal violet (see below). The medium of the other plates was supplemented with 3 nM of paclitaxel (Sigma-Aldrich) and the cells were incubated at 37° C. After 4 hours the test substances were added in various concentrations (0 μM, as well as in the range of 0.001-10 μM; the final concentration of the solvent dimethyl sulfoxide was adjusted to 0.1%) using a Hewlett-Packard HP D300 Digital Dispenser. The cells were incubated for another 92 hours at 37° C. in the presence of test substances. Cell proliferation was determined by staining the cells with crystal violet: the cells were fixed by adding 20 μL/measuring point of an 11% glutaric aldehyde solution for 15 minutes at room temperature. After three washing cycles of the fixed cells with water, the plates were dried at room temperature. The cells were stained by adding 100 μL/measuring point of a 0.1% crystal violet solution (pH 3.0). After three washing cycles of the stained cells with water, the plates were dried at room temperature. The dye was dissolved by adding 100 μL/measuring point of a 10% acetic acid solution. […] The change of cell number, in percent, was calculated by normalization of the measured values to the absorbtion values of the zero-point plate (=0%) and the absorbtion of the untreated (0 μm) cells (=100%). The IC50 values were determined by means of a 4 parameter fit.
The mark [3] stands for this setting: 10 μM ATP, read-out: Biological Assay 1: Bub1 kinase assay median IC50.
Setting [4] is: Biological Assay 1: Bub1 kinase assay median IC50, 10 μM ATP.

Structures can show the parent of a compound that is named as a salt. Where two headings read alike, the source gives them in different places.

T1 sequence (O43683 704-1085): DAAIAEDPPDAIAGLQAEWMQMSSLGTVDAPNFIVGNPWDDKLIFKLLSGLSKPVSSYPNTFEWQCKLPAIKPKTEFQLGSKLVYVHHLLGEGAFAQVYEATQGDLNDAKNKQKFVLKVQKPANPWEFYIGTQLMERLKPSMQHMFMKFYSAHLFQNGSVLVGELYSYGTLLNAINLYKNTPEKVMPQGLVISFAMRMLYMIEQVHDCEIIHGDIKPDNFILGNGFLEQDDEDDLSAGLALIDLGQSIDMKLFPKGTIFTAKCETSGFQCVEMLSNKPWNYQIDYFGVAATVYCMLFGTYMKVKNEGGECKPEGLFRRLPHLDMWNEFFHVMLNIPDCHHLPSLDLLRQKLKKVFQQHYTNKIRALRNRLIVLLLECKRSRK
Bub1, sequence (O43683 whole entry): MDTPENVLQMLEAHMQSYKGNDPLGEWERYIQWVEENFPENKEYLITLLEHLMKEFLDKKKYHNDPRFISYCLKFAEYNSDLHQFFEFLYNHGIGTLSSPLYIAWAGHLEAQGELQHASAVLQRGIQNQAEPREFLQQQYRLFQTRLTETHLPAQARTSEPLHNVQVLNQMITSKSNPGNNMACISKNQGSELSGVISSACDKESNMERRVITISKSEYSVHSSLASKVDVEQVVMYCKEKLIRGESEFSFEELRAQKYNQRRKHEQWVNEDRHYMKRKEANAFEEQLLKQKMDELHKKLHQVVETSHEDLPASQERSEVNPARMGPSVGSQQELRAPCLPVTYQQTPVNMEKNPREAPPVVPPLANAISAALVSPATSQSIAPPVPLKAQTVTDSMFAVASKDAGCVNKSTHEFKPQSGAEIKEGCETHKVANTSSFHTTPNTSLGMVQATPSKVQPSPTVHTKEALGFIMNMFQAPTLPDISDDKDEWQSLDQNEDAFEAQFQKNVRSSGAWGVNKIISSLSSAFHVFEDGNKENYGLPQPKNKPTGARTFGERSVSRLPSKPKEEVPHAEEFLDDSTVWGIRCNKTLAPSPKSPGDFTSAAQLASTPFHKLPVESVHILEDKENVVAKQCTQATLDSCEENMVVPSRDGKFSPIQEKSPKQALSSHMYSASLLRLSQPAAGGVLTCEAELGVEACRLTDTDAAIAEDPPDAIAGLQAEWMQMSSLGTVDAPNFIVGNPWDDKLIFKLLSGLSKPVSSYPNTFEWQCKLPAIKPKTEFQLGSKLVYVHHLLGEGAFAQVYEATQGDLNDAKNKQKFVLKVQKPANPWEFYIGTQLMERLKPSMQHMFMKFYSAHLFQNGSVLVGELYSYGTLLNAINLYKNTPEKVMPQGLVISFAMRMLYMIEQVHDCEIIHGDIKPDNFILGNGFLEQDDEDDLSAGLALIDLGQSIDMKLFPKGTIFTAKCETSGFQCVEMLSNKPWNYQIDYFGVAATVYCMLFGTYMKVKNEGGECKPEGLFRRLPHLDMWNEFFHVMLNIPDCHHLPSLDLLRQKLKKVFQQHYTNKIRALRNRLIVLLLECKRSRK

For the molecule `CCOc1cc(F)c(Cn2nc(-c3nc4c(c(Nc5ccnc(C(F)F)c5)n3)CCCC4)c3ccccc32)c(F)c1` [Example 2-19-19, N-[2-(difluoromethyl)pyridin-4-yl]-2-[1-(4-ethoxy-2,6-difluorobenzyl)-1H-indazol-3-yl]-5,6,7,8-tetrahydroquinazolin-4-amine], the IC50 with HeLa is above 10000 nM; in experiment [1] (setting [3]), 19 nM; at Bub1, 7.3 nM; in experiment [2], 690 nM.

`CCOc1cc(F)c(Cn2nc(-c3nc4c(c(Nc5cc(C)ncc5C)n3)CC(C)(C)C4)c3ccccc32)c(F)c1` [Example 2-12-59, N-(2,5-dimethylpyridin-4-yl)-2-[1-(4-ethoxy-2,6-difluorobenzyl)-1H-indazol-3-yl]-6,6-dimethyl-6,7-dihydro-5H-cyclopenta[d]pyrimidin-4-amine]: the IC50 is above 10000 nM in the experiment with HeLa, 22 nM in experiment [1] (setting [3]), 120 nM on Bub1 and 62 nM in experiment [2].

With `CCOc1cc(F)c(Cn2nc(-c3nc(Nc4ccncc4OC)cc(C(F)(F)F)n3)c3ccccc32)c(F)c1` [Example 2-12-81, 2-[1-(4-ethoxy-2,6-difluorobenzyl)-1H-indazol-3-yl]-N-(3-methoxypyridin-4-yl)-6-(trifluoromethyl)pyr-imidin-4-amine], the IC50 was determined as 1600 nM in the experiment with HeLa, 19 nM in experiment [1] (setting [3]), 13 nM on Bub1 and 220 nM in experiment [2].

As for `CCOc1cc(F)c(Cn2nc(-c3nc4c(c(Nc5ccnc(C)c5)n3)CCC4)c3ccccc32)c(F)c1` [Example 2-12-6, 2-[1-(4-ethoxy-2,6-difluorobenzyl)-1H-indazol-3-yl]-N-(2-methylpyridin-4-yl)-6,7-dihydro-5H-cyclopenta[d]pyrimidin-4-amine], the IC50 came out at 1200 nM in the experiment with HeLa, 11 nM in experiment [1] (setting [3]), 6 nM at Bub1 and 330 nM in experiment [2].

On to `CCOc1cc(F)c(Cn2nc(-c3nc(CN4CCOCC4)cc(Nc4ccncc4C)n3)c3ccccc32)c(F)c1` [Example 2-12-13, 2-[1-(4-ethoxy-2,6-difluorobenzyl)-1H-indazol-3-yl]-N-(3-methylpyridin-4-yl)-6-(morpholin-4-ylmethyl)pyrimidin-4-amine], for which the IC50 came out at 3400 nM in the experiment on HeLa, 6 nM in experiment [1] (setting [3]), 6.6 nM at Bub1 and 89 nM in experiment [2].

Regarding `Cc1nccc(Nc2nc(-c3nn(Cc4c(F)cc(OCCO)cc4F)c4ccccc34)nc3c2CCC3)n1` [Example 2-6-18, 2-{3,5-difluoro-4-[(3-{4-[(2-methylpyrimidin-4-yl)amino]-6,7-dihydro-5H-cyclopenta[d]pyrimidin-2-yl}-1H-indazol-1-yl)methyl]phenoxy}ethanol], the IC50 in the experiment on HeLa is above 10000 nM; in experiment [1] (setting [4]), 30 nM; on Bub1 it was 0.79 nM; in experiment [2], 90 nM.

As to `CC(=O)Nc1cc(Nc2nc(-c3nn(Cc4c(F)cc(OCCO)cc4F)c4ccccc34)ncc2C2CCN(CC(F)(F)F)CC2)ccn1` [Example 2-6-13, N-{4-[(2-{1-[2,6-difluoro-4-(2-hydroxyethoxy)benzyl]-1H-indazol-3-yl}-5-[1-(2,2,2-trifluoroethyl)piperidin-4-yl]pyrimidin-4-yl)amino]pyridin-2-yl}acetamide], the IC50 with HeLa was determined as 9700 nM; in experiment [1] (setting [4]) it was 53 nM; at Bub1, 8.4 nM; in experiment [2] it was 390 nM.

On to `CCOc1cc(F)c(Cn2nc(-c3ncc(OCCS(C)(=O)=O)c(Nc4ccncc4)n3)c3ccccc32)c(F)c1` [Example 3-3-1, 2-[1-(4-ethoxy-2,6-difluorobenzyl)-1H-indazol-3-yl]-5-[2-(methylsulfonyl)ethoxy]-N-(pyridin-4-yl)pyrimidin-4-amine, reference compound], for which the IC50 turned out to be 4100 nM with HeLa, 5.9 nM in experiment [1] (setting [4]), 500 nM at Bub1 and 1100 nM in experiment [2].

On to `COc1cnccc1Nc1nc(-c2nn(Cc3c(F)cc(OCCO)cc3F)c3ccccc23)nc2c1CCC2` [Example 2-4-5, 2-{3,5-difluoro-4-[(3-{4-[(3-methoxypyridin-4-yl)amino]-6,7-dihydro-5H-cyclopenta[d]pyrimidin-2-yl}-1H-indazol-1-yl)methyl]phenoxy}ethanol], for which the IC50 in the experiment on HeLa came out at 2600 nM; in experiment [1] (setting [3]), 28 nM; at Bub1 it was 3900 nM; in experiment [2] it was 180 nM.

Regarding `CCOc1cc(F)c(Cn2nc(-c3nc(CN4CCOCC4)cc(Nc4ccncc4OC)n3)c3ccccc32)c(F)c1` [Example 2-19-13, 2-[1-(4-ethoxy-2,6-difluorobenzyl)-1H-indazol-3-yl]-N-(3-methoxypyridin-4-yl)-6-(morpholin-4-ylmethyl)pyrimidin-4-amine], the IC50 with HeLa was 3400 nM; in experiment [1] (setting [3]), 7.7 nM; at Bub1 it was 3800 nM; in experiment [2] it was 130 nM.

`CCOc1cc(F)c(Cn2nc(-c3ncc(CCCCN4CCOCC4)c(Nc4ccncc4)n3)c3ccccc32)c(F)c1` [Example 2-2-12, 2-[1-(4-ethoxy-2,6-difluorobenzyl)-1H-indazol-3-yl]-5-[4-(morpholin-4-yl)butyl]-N-(pyridin-4-yl)pyrimidin-4-amine]: the IC50 in the experiment with HeLa came out at 2300 nM; in experiment [1] (setting [4]) it was 12 nM; on Bub1, 800 nM; in experiment [2], 170 nM.

For the molecule `CCOc1cc(F)c(Cn2nc(-c3ncc(CCCN4CCOCC4)c(Nc4ccncc4C(F)(F)F)n3)c3ccccc32)c(F)c1` [Example 2-2-14, 2-[1-(4-ethoxy-2,6-difluorobenzyl)-1H-indazol-3-yl]-5-[3-(morpholin-4-yl)propyl]-N-[3-(trifluoromethyl)pyridin-4-yl]pyrimidin-4-amine], the IC50 with HeLa worked out at 7800 nM; in experiment [1] (setting [4]), 130 nM; at Bub1, 3900 nM; in experiment [2], 140 nM.

`CCOc1cc(F)c(Cn2nc(-c3ncc(C4CCN(CCC(F)(F)F)CC4)c(Nc4ccncc4OC)n3)c3ccccc32)c(F)c1` [Example 2-22-1, 2-[1-(4-ethoxy-2,6-difluorobenzyl)-1H-indazol-3-yl]-N-(3-methoxypyridin-4-yl)-5-[1-(3,3,3-trifluoropropyl)piperidin-4-yl]pyrimidin-4-amine]: the IC50 in the experiment with HeLa is 3600 nM; in experiment [1] (setting [4]), 35 nM; on Bub1 it was 72 nM; in experiment [2], 140 nM.

For the molecule `OCCOc1cc(F)c(Cn2nc(-c3nc(CN4CCOCC4)cc(Nc4ccnnc4)n3)c3ccccc32)c(F)c1` [Example 2-6-37, 2-[3,5-difluoro-4-({3-[4-(morpholin-4-ylmethyl)-6-(pyridazin-4-ylamino)pyrimidin-2-yl]-1H-indazol-1-yl}methyl)phenoxy]ethanol], the IC50 in the experiment with HeLa came out at 9500 nM; in experiment [1] (setting [3]), 40 nM; on Bub1 it was 260 nM; in experiment [2], 2300 nM.

Take `CCOc1cc(F)c(Cn2nc(-c3nc(CN4CCOCC4)cc(Nc4ccncc4)n3)c3ccccc32)c(F)c1` [Example 2-12-12, 2-[1-(4-ethoxy-2,6-difluorobenzyl)-1H-indazol-3-yl]-6-(morpholin-4-ylmethyl)-N-(pyridin-4-yl)pyrimidin-4-amine]: the IC50 was 3600 nM in the experiment with HeLa, 6.8 nM in experiment [1] (setting [3]), 3.6 nM on Bub1 and below 100 nM in experiment [2].

As for `Cc1nccc(Nc2nc(-c3nn(Cc4c(F)cc(OCCO)cc4F)c4ccccc34)nc3c2CCC(C)(C)C3)n1` [Example 2-6-24, 2-{4-[(3-{7,7-dimethyl-4-[(2-methylpyrimidin-4-yl)amino]-5,6,7,8-tetrahydroquin-azolin-2-yl}-1H-indazol-1-yl)methyl]-3,5-difluorophenoxy} ethanol], the IC50 in the experiment with HeLa was above 10000 nM; in experiment [1] (setting [4]), 120 nM; at Bub1 it was 14 nM; in experiment [2] it was 150 nM.

Consider `CCOc1cc(F)c(Cn2nc(-c3ncc(CC4CNC4)c(Nc4ccnc(NC(C)=O)c4)n3)c3ccccc32)c(F)c1` [Example 2-9-7, N-[4-({5-(azetidin-3-ylmethyl)-2-[1-(4-ethoxy-2,6-difluorobenzyl)-1H-indazol-3-yl]pyrimidin-4-yl}amino)pyridin-2-yl]acetamide, salt with hydrochloric acid], for which the IC50 in the experiment with HeLa was 10000 nM; in experiment [1] (setting [4]) it was 7.4 nM; on Bub1 it was 6.7 nM; in experiment [2], 170 nM.

As to `CCOc1cc(F)c(Cn2nc(-c3nc4c(c(Nc5ccnc(NC(C)=O)c5)n3)CCC4)c3ccccc32)c(F)c1` [Example 2-12-18, N-[4-({2-[1-(4-ethoxy-2,6-difluorobenzyl)-1H-indazol-3-yl]-6,7-dihydro-5H-cyclopenta[d]pyrimidin-4-yl}amino)pyridin-2-yl]acetamide], the IC50 in the experiment with HeLa came to 2000 nM; in experiment [1] (setting [3]) it was 8.4 nM; at Bub1 it was 4.1 nM; in experiment [2], 250 nM.

Turning to `Cc1cc(Nc2nc(-c3nn(Cc4c(F)cc(OCCO)cc4F)c4ccccc34)nc3c2CCC3)ncn1` [Example 2-4-11, 2-{3,5-difluoro-4-[(3-{4-[(6-methylpyrimidin-4-yl)amino]-6,7-dihydro-5H-cyclopenta[d]pyrimidin-2-yl}-1H-indazol-1-yl)methyl]phenoxy}ethanol], the IC50 was above 10000 nM in the experiment with HeLa, 88 nM in experiment [1] (setting [4]), 1900 nM on Bub1 and 120 nM in experiment [2].
